Test results as given in patent publication US8629141B2, “Spiro-oxindole MDM2 antagonists” (The Regents of the University of Michigan, priority 2011, dated 2014).

Key:
[1] = molecular target: recombinant human His-tagged MDM2 protein (residues 1-118) (Homo sapiens (Human), UniProt Q00987); test: Fluorescence-polarization MDM2 competitive binding assay; conditions: for IC50: FP competition with PMDM6-F peptide (1 nM), MDM2 10 nM, 3 h incubation, read-out: Binding affinities to MDM2 (1-118) IC50
Protocol: The binding affinity of the MDM2 inhibitors disclosed herein was determined using a fluorescence polarization-based (FP-based) binding assay using a recombinant human His-tagged MDM2 protein (residues 1-118) and a fluorescently tagged p53-based peptide.
(García-Echeverria et al., J. Med. Chem. 43: 3205-3208 (2000)). […] The assay was performed in the buffer: 100 mM potassium phosphate, pH 7.5; 100 μg/mL bovine gamma globulin; 0.02% sodium azide, 0.01% Triton X-100) and the polarization values were measured after 3 h of incubation using an ULTRA READER (Tecan U.S. Inc., Research Triangle Park, N.C.). […] The Kd value was calculated using the equation: Kd value=IC50−L0/2.
100 μg/mL bovine gamma globulin; 0.02% sodium azide, 0.01% Triton X-100), were added in a Dynex 96-well, black, round-bottom plate to produce a final volume of 125 μL. […] The polarization values were measured after 3 h of incubation. […] Curve fitting was performed using […] PRISM software (GraphPad Software, Inc., San Diego, Calif.).

[2] = Stability in 1:1 MeOH:H2O with 10% TFA; type: physicochemical; conditions: 1:1 MeOH:H2O with 10% TFA added, UPLC (FIG. 6)
Protocol: The stability of Compound Example Nos. 10 and 11 were determined in 1:1 MeOH:H2O with 10% TFA added using ultra performance liquid chromatography (FIG. 6).

[3] = Stability of compounds in solution, 1:1 CH3CN:H2O; type: physicochemical; conditions: ultra performance liquid chromatography (FIG. 5)
[4] = Stability of compounds in solution, 1:1 MeOH:H2O; type: physicochemical; conditions: ultra performance liquid chromatography (FIG. 4)

| Structure (SMILES) | IC50 [1] [nM] | other results |
| --- | --- | --- |
| O=C(NC1CCC(O)CC1)[C@@H]1NC[C@@]2(C(=O)Nc3cc(Cl)ccc32)[C@H]1c1cccc(Cl)c1F (some centres unmarked) [Compound 5] | > 10000 | – |
| CS(=O)(=O)CCN1CCC(NC(=O)[C@@H]2NC3(CCCCC3)[C@@]3(C(=O)Nc4cc(Cl)ccc43)[C@H]2c2cccc(Cl)c2F)CC1 [Compound 25] | < 100 | – |
| O=C(O)[C@@H]1NC2(CCCCC2)[C@@]2(C(=O)Nc3cc(Cl)ccc32)[C@H]1c1cccc(Cl)c1F [Compound 26] | < 500 | – |
| O=C(NCc1nnn[nH]1)[C@@H]1NC2(CCCCC2)[C@@]2(C(=O)Nc3cc(Cl)ccc32)[C@H]1c1cccc(Cl)c1F [Compound 32] | < 100 | – |
| CC1(O)CC(NC(=O)[C@@H]2NC3(CCCCC3)[C@@]3(C(=O)Nc4cc(Cl)ccc43)[C@H]2c2cccc(Cl)c2F)C1 (some centres unmarked) [Compound 33] | < 100 | – |
| CNC(=O)[C@@H]1NC2(CCCCC2)[C@@]2(C(=O)Nc3cc(Cl)ccc32)[C@H]1c1cc(Cl)ccc1OC(C)(C)C(=O)O [Compound 34] | > 10000 | – |
| CNC(=O)[C@@H]1NC2(CCCCC2)[C@@]2(C(=O)Nc3cc(Cl)ccc32)[C@H]1c1cc(Cl)cnc1OC(C)(C)C(=O)O [Compound 35] | > 10000 | – |
| O=C(NC1CN(C(=O)O)C1)[C@@H]1NC2(CCCCC2)[C@@]2(C(=O)Nc3cc(Cl)ccc32)[C@H]1c1cccc(Cl)c1F [Compound 39] | < 100 | – |
| O=C(NC1CCC(O)CC1)[C@@H]1NC2(CCCCC2)[C@@]2(C(=O)Nc3cc(Cl)ccc32)[C@H]1c1cccc(Cl)c1F (some centres unmarked) [Compound 41] | < 100 | – |
| O=C(NC1CCC(O)CC1)[C@@H]1NC2(CCOCC2)[C@]2(C(=O)Nc3cc(Cl)ccc32)[C@H]1c1cccc(Cl)c1F (some centres unmarked) [compound 10] | – | Stability in solution (isomer conversion) [2]: converted into Compound Example No. 11 |
| O=C(NC1CN(C(=O)O)C1)[C@@H]1NC2(CCCCC2)[C@@]2(C(=O)Nc3cc(Cl)ccc32)[C@H]1c1cccc(Cl)c1F [compound 39] | – | Stability in solution [3]: more stable than MI-77301; Stability in solution [4]: more stable than MI-77301 |

Now from value to molecule, other results behind:

| IC50 [1] [nM] | Structure (SMILES) | other results |
| --- | --- | --- |
| 201 | CC1(C)N[C@@H](C(=O)NC2CCC(O)CC2)[C@H](c2cccc(Cl)c2F)[C@]12C(=O)Nc1cc(Cl)ccc12 (some centres unmarked) [Compound 1] | Ki ([1]; FP competition with PMDM6-F peptide, read-out: Binding affinities to MDM2 (1-118) Ki): 26.4 nM |
| < 1000 | CCC1(CC)N[C@@H](C(=O)NCCN2CCOCC2)[C@H](c2cccc(Cl)c2F)[C@]12C(=O)Nc1cc(Cl)ccc12 [Compound 6] | – |
| < 1000 | O=C(NCCN1CCOCC1)[C@@H]1NC2(CCC(F)(F)CC2)[C@@]2(C(=O)Nc3cc(Cl)ccc32)[C@H]1c1cccc(Cl)c1F [Compound 7] | – |
| < 5000 | O=C(NCCN1CCOCC1)[C@@H]1NC2(CCC(F)(F)CC2)[C@]2(C(=O)Nc3cc(Cl)ccc32)[C@H]1c1cccc(Cl)c1F [Compound 8] | – |
| < 5000 | O=C(NCCN1CCOCC1)[C@@H]1NC2(CCOCC2)[C@@]2(C(=O)Nc3cc(Cl)ccc32)[C@H]1c1cccc(Cl)c1F [Compound 12] | – |
| < 100 | O=C(NCCN1CCOCC1)[C@@H]1NC2(CCCCC2)[C@@]2(C(=O)Nc3cc(Cl)ccc32)[C@H]1c1cccc(Cl)c1F [Compound 15] | – |
| < 100 | CS(=O)(=O)CCNC(=O)[C@@H]1NC2(CCCCC2)[C@@]2(C(=O)Nc3cc(Cl)ccc32)[C@H]1c1cccc(Cl)c1F [Compound 20] | – |
